Experimental data published in patent US10882837B2, “Amide compounds and use thereof” (ALPHALA CO., LTD., priority 2017, dated 2021).

Key:
[1] = target: GCGR (Homo sapiens, UniProt P47871); experiment: I125-glucagon binding assay (competition, GCGR membrane fractions); design: expressed in transfected cells; host or cells: CHO-K1; inhibition: dose or concentration left out as unconfirmed; details: for IC50: competition with I125-glucagon 0.0625 nM, membrane fractions from GCGR overexpressed CHO-K1 cells
Sequence of GCGR (P47871 26-477, species assumed): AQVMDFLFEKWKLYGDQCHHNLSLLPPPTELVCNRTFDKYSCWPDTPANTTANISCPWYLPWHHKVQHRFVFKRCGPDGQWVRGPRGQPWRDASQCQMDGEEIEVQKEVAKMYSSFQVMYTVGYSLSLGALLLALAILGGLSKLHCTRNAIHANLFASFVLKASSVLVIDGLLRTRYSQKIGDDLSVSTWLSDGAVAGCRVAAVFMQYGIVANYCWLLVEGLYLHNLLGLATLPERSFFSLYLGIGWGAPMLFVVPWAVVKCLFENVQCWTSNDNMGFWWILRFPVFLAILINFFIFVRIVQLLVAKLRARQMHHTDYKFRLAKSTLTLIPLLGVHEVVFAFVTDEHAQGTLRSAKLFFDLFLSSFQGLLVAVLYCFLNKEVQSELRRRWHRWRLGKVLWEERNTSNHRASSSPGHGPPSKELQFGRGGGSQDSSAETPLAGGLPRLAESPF
How it was run: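 Membranes from CHO-K1 cells overexpressing GCGR (7.5 µg/well) were preincubated 5 min with serially diluted compound in 50 mM Tris pH 7.4, 0.5% BSA. I125-glucagon was then added at 0.0625 nM final and incubated 30 min at 25 °C. After filtration, bound radioactivity was counted and IC50 derived by non-linear regression.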

[2] = target: T1, glucagon receptor (GCGR) (Homo sapiens, UniProt P47871); experiment: Glucagon cAMP inhibition assay (Cisbio cAMP Dynamic 2 HTRF); assay type: cell-based; details: GCGR overexpressed CHO-K1 cells or human primary hepatocytes (not specified); glucagon at EC50
T1 construct: expressed in transfected cells; host or cells: CHO-K1
T1 sequence (P47871 26-477, species assumed): as above
How it was run: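 GCGR-overexpressing CHO-K1 cells or human primary hepatocytes in HBSS with 0.1% BSA and 800 nM IBMX, pre-incubated 30 min with compound (1% DMSO final), then stimulated 30 min at room temperature with glucagon at its EC50. cAMP measured by HTRF after 60 min lysis; IC50 from non-linear regression.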

In the case of `CCC(C)C(Nc1ccc(C(=O)NCCC(=O)O)cc1)c1ccc(-c2nnc(C(C)(C)C)o2)cc1` (stereo not shown) [Compound 1-22, 3-(4-((1-(4-(5-(tert-butyl)-1,3,4-oxadiazol-2-yl)phenyl)-2-methylbutyl)amino)benzamido)propanoic acid], the IC50 [1] is reported as 246 nM and the IC50 [2] is reported as 10300 nM.
Work on `CC(C)C(Nc1ccc(C(=O)NCCC(=O)O)cc1)c1ccc(-c2noc(-c3cccs3)n2)cc1` (stereo not shown) [Compound 2-12, 3-(4-((2-methyl-1-(4-(5-(thiophen-2-yl)-1,2,4-oxadiazol-3-yl)phenyl)propyl)amino)benzamido)propanoic acid] yielded an IC50 [1] of 354 nM and an IC50 [2] of 504 nM.
Work on `CCOC(=O)CCNC(=O)c1ccc(NC(c2ccc(-c3nnc(-c4ccc(F)cc4)o3)cc2)C(C)CC)cc1` (stereo not shown) [Compound 1-29, ethyl 3-(4-((1-(4-(5-(4-fluorophenyl)-1,3,4-oxadiazol-2-yl)phenyl)-2-methylbutyl)amino)benzamido)propanoate] yielded an IC50 [1] of 4720 nM and an IC50 [2] of 114 nM.
For `CC(C)C[C@@H](Nc1ccc(C(=O)NCCC(=O)O)cc1)c1ccc(-c2nc3ccccc3o2)cc1` [Compound 4-14, (R)-3-(4-((1-(4-(benzo[d]oxazol-2-yl)phenyl)-3-methylbutyl)amino)benzamido)propanoic acid], the IC50 [1] was 112 nM and the IC50 [2] was 917 nM.
Molecule `CC(C)C[C@H](Nc1ccc(C(=O)NCCC(=O)O)cc1)c1ccc(-c2nnc(-c3ccccc3)o2)cc1` [Compound 1-61, (S)-3-(4-((3-methyl-1-(4-(5-phenyl-1,3,4-oxadiazol-2-yl)phenyl)butyl)amino)benzamido)propanoic acid] has an IC50 [1] of 201 nM and an IC50 [2] of 3250 nM.
With `CCOC(=O)CCNC(=O)c1ccc([C@H](Nc2ccc(-c3nnc(-c4ccccc4)o3)cc2)C(C)C)cc1` [Compound 3-13, (R)-ethyl 3-(4-(2-methyl-1-(4-(5-phenyl-1,3,4-oxadiazol-2-yl)phenylamino)propyl)benzamido)propanoate] the IC50 [1] was > 30000 nM and the IC50 [2] was 207 nM.
`CC(C)C(Nc1ccc(C(=O)NCCC(=O)O)cc1)c1ccc(-c2noc(-c3ccc(F)cc3)n2)cc1` (stereo not shown) [Compound 2-25, 3-(4-((1-(4-(5-(4-fluorophenyl)-1,2,4-oxadiazol-3-yl)phenyl)-2-methylpropyl)amino)benzamido)propanoic acid] showed an IC50 [1] of 58 nM and an IC50 [2] of 1190 nM.
`CCC(C)C(Nc1ccc(C(=O)NCCC(=O)O)cc1)c1ccc(-c2nnc(-c3ccccc3)o2)cc1` (stereo not shown) [Compound 1-11, 3-(4-((2-Methyl-1-(4-(5-phenyl-1,3,4-oxadiazol-2-yl)phenyl)butyl)amino)benzamido)propanoic acid] gave an IC50 [1] of 72 nM and an IC50 [2] of 2540 nM.
With `CCOC(=O)CCNC(=O)c1ccc(NC(c2ccc(-c3noc(-c4ccc(F)cc4)n3)cc2)C(C)C)cc1` (stereo not shown) [Compound 2-24, ethyl 3-(4-((1-(4-(5-(4-fluorophenyl)-1,2,4-oxadiazol-3-yl)phenyl)-2-methylpropyl)amino)benzamido)propanoate] the IC50 [1] was 2680 nM, the inhibition ([1]; read-out: percentage of inhibition (number in parenthesis in IC50 binding column)) was 35% and the IC50 [2] was 248 nM.
With `COc1ccc(-c2nnc(-c3ccc(C(Nc4ccc(C(=O)NCCC(=O)O)cc4)C(C)C)cc3)o2)cc1` (stereo not shown) [Compound 1-26, 3-(4-((1-(4-(5-(4-methoxyphenyl)-1,3,4-oxadiazol-2-yl)phenyl)-2-methylpropyl)amino)benzamido)propanoic acid] the IC50 [1] was 198 nM and the IC50 [2] was 4380 nM.
In the case of `CC(C)[C@@H](Nc1ccc(C(=O)NCCC(=O)O)cc1)c1ccc(-c2nnc(C(F)(F)F)o2)cc1` [Compound 1-58, (R)-3-(4-((2-methyl-1-(4-(5-(trifluoromethyl)-1,3,4-oxadiazol-2-yl)phenyl)propyl)amino)benzamido)propanoic acid], the IC50 [1] is reported as 875 nM and the IC50 [2] is reported as > 30000 nM.
In the case of `CCOC(=O)CCNC(=O)c1ccc(C(Nc2ccc(-c3nnc(-c4ccc(F)cc4)o3)cc2)C(C)C)cc1` (stereo not shown) [Compound 3-9, ethyl 3-(4-(1-((4-(5-(4-fluorophenyl)-1,3,4-oxadiazol-2-yl)phenyl)amino)-2-methylpropyl)benzamido)propanoate], the IC50 [1] is reported as > 30000 nM and the IC50 [2] is reported as 442 nM.
In the case of `CCCC[C@H](Nc1ccc(C(=O)NCCC(=O)OCC)cc1)c1ccc(-c2nc(-c3ccccc3)no2)cc1` [Compound 5-7, ethyl (S)-3-(4-((1-(4-(3-phenyl-1,2,4-oxadiazol-5-yl)phenyl)pentyl)amino)benzamido)propanoate], the IC50 [1] is reported as 1020 nM, the inhibition at 30 µM ([1]; compound at 30 μM, read-out: percentage of inhibition (number in parenthesis in IC50 binding column)) is reported as 32% and the IC50 [2] is reported as 59 nM.
With `CCOC(=O)CCNC(=O)c1ccc(N[C@H](c2ccc(-c3nc(-c4ccccc4)no3)cc2)C(C)C)cc1` [Compound 5-3, ethyl (S)-3-(4-((2-methyl-1-(4-(3-phenyl-1,2,4-oxadiazol-5-yl)phenyl)propyl)amino)benzamido)propanoate] the IC50 [1] was 1740 nM and the IC50 [2] was 71.4 nM.
With `CCCC[C@@H](Nc1ccc(C(=O)NCCC(=O)OCC)cc1)c1ccc(-c2noc(C(F)(F)F)n2)cc1` [Compound 2-46, ethyl (R)-3-(4-((1-(4-(5-(trifluoromethyl)-1,2,4-oxadiazol-3-yl)phenyl)pentyl)amino)benzamido)propanoate] the IC50 [1] was > 30000 nM and the IC50 [2] was 2880 nM.
`CC(C)C(Nc1ccc(-c2nnc(-c3ccccc3)o2)cc1)c1ccc(C(=O)NCCC(=O)O)cc1` (stereo not shown) [Compound 3-2, 3-(4-(2-methyl-1-((4-(5-phenyl-1,3,4-oxadiazol-2-yl)phenyl)amino)propyl)benzamido)propanoic acid] showed an IC50 [1] of 17 nM and an IC50 [2] of 2900 nM.
For `CCOC(=O)CCNC(=O)c1ccc(NC(c2ccc(-c3nnc(C(F)(F)F)o3)cc2)C(C)CC)cc1` (stereo not shown) [Compound 1-31, ethyl 3-(4-((2-methyl-1-(4-(5-(trifluoromethyl)-1,3,4-oxadiazol-2-yl)phenyl)butyl)amino)benzamido)propanoate], the IC50 [1] was > 30000 nM and the IC50 [2] was 88 nM.
Work on `CC(C)[C@H](Nc1ccc(-c2nnc(-c3ccccc3)o2)cc1)c1ccc(C(=O)NCCC(=O)O)cc1` [Compound 3-14, (S)-3-(4-(2-methyl-1-(4-(5-phenyl-1,3,4-oxadiazol-2-yl)phenylamino)propyl)benzamido)propanoic acid] yielded an IC50 [1] of 957 nM and an IC50 [2] of 1780 nM.
Molecule `CC(C)[C@H](Nc1ccc(C(=O)NCCC(=O)O)cc1)c1ccc(-c2noc(-c3ccccc3)n2)cc1` [Compound 2-28, (S)-3-(4-((2-methyl-1-(4-(5-phenyl-1,2,4-oxadiazol-3-yl)phenyl)propyl)amino)benzamido)propanoic acid] has an IC50 [1] of 29 nM and an IC50 [2] of 295 nM.
`CCCC[C@@H](Nc1ccc(C(=O)NCCC(=O)O)cc1)c1ccc(-c2noc(-c3ccccc3)n2)cc1` [Compound 2-36, (R)-3-(4-((1-(4-(5-phenyl-1,2,4-oxadiazol-3-yl)phenyl)pentyl)amino)benzamido)propanoic acid] showed an IC50 [1] of 199 nM and an IC50 [2] of 338 nM.
In the case of `CCOC(=O)CCNC(=O)c1ccc(N[C@@H](c2ccc(-c3nnc(C(F)(F)F)o3)cc2)C(C)C)cc1` [Compound 1-56, ethyl (R)-3-(4-((2-methyl-1-(4-(5-(trifluoromethyl)-1,3,4-oxadiazol-2-yl)phenyl)propyl)amino)benzamido)propanoate], the IC50 [1] is reported as > 30000 nM and the IC50 [2] is reported as 164 nM.
For `CCOC(=O)CCNC(=O)c1ccc(N[C@H](CC(C)C)c2ccc(-c3nnc(-c4ccccc4)o3)cc2)cc1` [Compound 1-60, ethyl (R)-3-(4-((3-methyl-1-(4-(5-phenyl-1,3,4-oxadiazol-2-yl)phenyl)butyl)amino)benzamido)propanoate], the IC50 [1] was > 30000 nM and the IC50 [2] was 114 nM.
